Where “and” joins values, the source holds several entries; their conditions need not be identical. Equal entries are not always repeated. Where two headings read alike, the source gives them in different places.
How the values were obtained:
[1] = system: DU145 prostate cancer cells; assay: Cell Titer Glo proliferation assay in DU145; assay type: cell-based, human; details: 72 h, Mean ± SEM, n ≥ 3, read-out: IC50 values in prostate cancer cell lines, DU145
Procedure: (§1) Previously presented compounds 1-4 (FIG. 23), compounds 5-8 (FIG. 28), and control compound FTY720 (FIG. 2) were used to treat the well-established PC3 and DU145 prostate cancer lines (FIG. 29 and Table 1). A Cell Titer Glo assay was performed to measure proliferation of the cancer lines.
(§2) Cell culture studies: Sup-B15 cells are maintained at 2-3 million/mL in RPMI 1640 (Mediatech) supplemented with 10% fetal calf serum (FCS, Sigma-Aldrich), 10 mM Hepes (Mediatech), 55 μM β-mercaptoethanol (Sigma-Aldrich), 2 mM L-glutamine (Mediatech), and antibiotics. All adherent cells are maintained at 70-80% confluence. Cell are cultured in the following media: PC3 & A549, Ham's F12K (Corning Cell Gro) supplemented with 10% FCS and antibiotics; DU145 cells, MEM (Corning Cell Gro) supplemented with 10% FCS, 1 mM sodium pyruvate (Mediatech), and antibiotics; SW620 & MDA-MB-231, DMEM (Corning Cell Gro) with 10% FCS, 1 mM sodium pyruvate (Mediatech), and antibiotics; Panc-1 cells, DMEM (Corning Cell Gro) supplemented with 10% FCS and antibiotics. All of the above cell lines are available from the ATCC.
(§3) Viability assays: Cell Titer Glo assays (Cell Titer Glo Luminescent Cell Viability Assay kit, cat #G7571, Promega Corporation) are performed in clear bottom 96-well black cell culture plates (cat #655090, Greiner Bio-One, NC, USA). After plating at 1,000 cells/well in volume of 100 μl, cells are left undisturbed for at least 24 h before drug addition. After 72 h, cells are prepared for analysis by adding 10 μl of 0.1% Triton-X100 in PBS with shaking for 1 min at room temperature (RT). Cell Titer-Glo cell lysis reagent (20 μl) is then added followed by 1 min of shaking and a 10 min incubation in the dark at RT. Luminescence is detected using an IVIS imaging system (IVIS Lumina II, Perkin Elmer, USA). […] IC50s are determined using GraphPad Prism (GraphPad Software, Inc, La Jolla, Calif.). SupB-15 viability was determined by flow cytometry. Cell Titer Glo assays were performed with the other cell lines.

[2] = system: PC3 prostate cancer cells; assay: Cell Titer Glo proliferation assay in PC3; assay type: cell-based, human; details: Cell Titer Glo, 72 h; Mean ± SEM, n ≥ 3; read-out: IC50 values in prostate cancer cell lines, PC3
Procedure: as §1, §2, §3

[3] = system: murine hematopoietic cell line FL5.12; assay: Viability of FL5.12 cells by vital dye exclusion; assay type: cell-based; details: for IC50: FL5.12 cells, 48 h, vital dye exclusion, n ≥3, read-out: IC50 (μM) [95% CI]
Procedure: (§4) Cell culture studies: FL5.12 cells (murine hematopoetic cells originally obtained from Craig Thompson, Memorial Sloan Kettering Cancer Center) were maintained at 0.1-0.5 million/ml in RPMI 1640 (Mediatech) supplemented with 10% fetal calf serum (FCS, Sigma-Aldrich), 10 mM Hepes (Mediatech), 500 pg/ml recombinant IL-3 (cat #575502, Biolegend), 55 μM β-mercaptoethanol (Sigma-Aldrich), 2 mM L-glutamine (Mediatech), and antibiotics. Cells were screened for Mycoplasma every 3 months using the Look-Out Mycoplasma PCR Detection kit (cat #MP0035, Sigma).
IC50 values were calculated using GraphPad Prism (GraphPad Software, Inc, La Jolla, Calif.).

[4] = system: CD98 (4F2hc, SLC3A2); assay: Surface CD98 nutrient transporter down-regulation by flow cytometry; assay type: cell-based, murine; details: FL5.12 cells; for % CD98 down-regulation: surface CD98 at 3 h, flow cytometry, mean ± SEM, n ≥3
From the text: (§5) In an exemplified study, nutrient transporter down-regulation was monitored by quantifying surface levels of the amino acid transporter-associated protein, CD98, by flow cytometry. Vacuolation was scored in a range from 0 to […], as determined by a vacuolation assay described in greater detail in the Materials and Methods section below.
as §4
Nutrient transporter expression: Surface CD98 (4F2hc, SLC3A2) expression was measured at 3 h using phycoerythrin (PE)-conjugated rat anti-mouse CD98 antibody (Biolegend, cat #128208); analysis was restricted to viable cells. PE conjugated Rat IgG2a, k (cat #400508, Biolegend) was used as an isotype control. For staining, 200,000 cells were pelleted, re-suspended in 100 μl FACS block (PBS with 10% FCS and 0.05% NaN3) containing 0.25 μL anti-CD98 antibody, incubated on ice for 30 min, washed twice with 1 ml FACS wash (PBS containing 2% FCS and 0.05% NaN3), and analyzed on a BD LSR II flow cytometer. Data was processed with FlowJo software (Treestar).

[5] = system: FL5.12 cells; assay: Vacuolation assay; assay type: cell-based, murine; design: key to Vacuolation score: 0-100 score: (3×%cat3+2×%cat2+1×%cat1)/3; cells graded 0-3 for vacuoles; details: for Vacuolation score / vacuolation (in words): FL5.12 cells; for Vacuolation score: 3 h in 2.5 μM compound except where otherwise indicated, mean ± SEM, n ≥3; for vacuolation (in words): at any dose / highest dose tested; for ability to induce vacuole formation: highest concentrations tested (30 μM)
Procedure: as §5
Vacuolation assay: Cells were evaluated at 100× using brightfield microscopy and a Nikon TE2000-S fluorescence microscope equipped with DIC filters. Vacuolation was quantified after a 3 h incubation period in 2.5 μM compound except where otherwise indicated. To calculate a vacuolation score, vacuolation severity in at least 15 individual cells/experiment was assessed qualitatively. Scores were assigned to individual cells as follows: 0=no vacuoles, 1=very small vacuoles, 2=multiple well-defined vacuoles, 3=multiple large vacuoles. To calculate the vacuolation score associated with a compound, the following formula was used: vacuolation score=[(3×% cells in category 3)+(2×% cells in category 2)+(1×% cells in category 1)]/3.
The score is divided by 3 so that a compound with 100% of its cells in category 3 would have a vacuolation score of 100. Three independent experiments were conducted and the vacuolation scores averaged to generate a mean+/−SEM. All cells were scored by one lab member after confirming that a blinded individual scored 5 compounds with similar results.

CCCCCCCCc1ccc([C@H]2C[C@H](CO)N[C@H]2CO)cc1 [Compound 1, (2R,3R,5R)-2,5-bis-hydroxymethyl-3-(4-octyl)phenyl pyrrolidine]
IC50 [1]: 7.3 ± 0.8 µM | IC50 [2]: 7 ± 0.3 µM

CCCCCCCCc1ccc([C@@H]2C[C@@H](CO)N[C@@H]2CO)cc1 [Compound 2]
IC50 [1]: 5.7 ± 0.4 µM | IC50 [2]: 6.1 ± 1 µM

CCCCCCCCc1ccc(C2CCNC2CO)cc1 (centres unmarked) [Compound 7]
IC50 [1]: 5.3 ± 0.7 µM | IC50 [2]: 5.5 ± 0.7 µM

CCCCCCCCc1ccc(COC2CNC(CO)C2)cc1 (centres unmarked) [Compound 102]
IC50 [3]: 2 µM | % CD98 down-regulation [4]: 63 ± 3% | Vacuolation score [5]: 33 ± 2

CCCCCCCCc1ccc(COC2CNC(CO)C2)cc1 (centres unmarked) [Compound 103]
IC50 [3]: 3 µM | % CD98 down-regulation [4]: 48 ± 2% | Vacuolation score [5]: 47 ± 2

CCCCCCCCc1ccc([C@@H]2CCN[C@H]2CO)cc1 [Compound 105]
IC50 [3]: 1.7 µM | % CD98 down-regulation [4]: 47% and 47 ± 3% | Vacuolation score [5]: 53 and 53 ± 3

CCCCCCCCCCCCC/C=C/[C@@H](O)[C@@H](N)CO [Compound 106, sphingosine, reference compound]
IC50 ([3]; Mus musculus): 3.6 µM | concentration required to cause similar transporter loss ([4]; CD98 loss): 2.5 µM | % CD98 down-regulation [4]: 48 ± 2% | Vacuolation score [5]: 57 ± 6

CCCCCCCCCCCCCCC[C@@H](O)[C@@H](N)CO [Compound 107, sphinganine, reference compound]
IC50 ([3]; Mus musculus): 3.5 µM | % CD98 down-regulation [4]: 47 ± 3% | Vacuolation score [5]: 38 ± 6

CCCCCCCCCCCCC/C=C/[C@@H](O)[C@H](CO)N(C)C [Compound 108, dimethylsphingosine, reference compound]
IC50 [3]: 0.77 µM and 0.8 µM | fold more potent than sphingosine (106) ([3]; IC50, FL5.12 cells): ~5 fold | % CD98 down-regulation [4]: 69 ± 2% | Vacuolation score [5]: 72 ± 3

CCCCCCc1ccc(COC2CNC(CO)C2)cc1 (centres unmarked) [Compound 111]
IC50 [3]: 2.7 µM | % CD98 down-regulation [4]: 30 ± 2% | Vacuolation score [5]: 0

CCCCC=Cc1ccc(COC2CNC(CO)C2)cc1 (centres unmarked) [Compound 112]
IC50 [3]: 5.5 µM | % CD98 down-regulation [4]: 30 ± 4% | Vacuolation score [5]: 0

CCCCCCC=Cc1ccc(COC2CNC(CO)C2)cc1 (centres unmarked) [Compound 113]
IC50 [3]: 1.4 µM | % CD98 down-regulation [4]: 64 ± 1% | Vacuolation score [5]: 27 ± 1

CCCCCCCCCCCCc1ccc(COC2CNC(CO)C2)cc1 (centres unmarked) [Compound 114]
IC50 [3]: 10.1 µM | % CD98 down-regulation [4]: 13 ± 3% | Vacuolation score [5]: 3 ± 1

CCCCCCCCCCCCCCc1ccc(COC2CNC(CO)C2)cc1 (centres unmarked) [Compound 116]
IC50 [3]: 10.5 µM | % CD98 down-regulation [4]: 12 ± 3% | Vacuolation score [5]: 4 ± 2

CCCCC=Cc1ccc(COC2CNC(CO)C2)cc1 (centres unmarked) [Compound 118]
IC50 [3]: 5.7 µM | % CD98 down-regulation [4]: 9 ± 3% | Vacuolation score [5]: 5 ± 2

CCCCCCC=Cc1ccc(COC2CNC(CO)C2)cc1 (centres unmarked) [Compound 119]
IC50 [3]: 2.4 µM | % CD98 down-regulation [4]: 41 ± 3% | Vacuolation score [5]: 70 ± 1

CCCCCCCCCCc1ccc(COC2CNC(CO)C2)cc1 (centres unmarked) [Compound 120]
IC50 [3]: 3.6 µM | % CD98 down-regulation [4]: 28 ± 1% | Vacuolation score [5]: 36 ± 5

CCCCCCCCCCCCc1ccc(COC2CNC(CO)C2)cc1 (centres unmarked) [Compound 121]
IC50 [3]: 3.9 µM | % CD98 down-regulation [4]: 14 ± 4% | Vacuolation score [5]: 30 ± 2

CCCCCCCCCCCCCCc1ccc(COC2CNC(CO)C2)cc1 (centres unmarked) [Compound 123]
IC50 [3]: 5.7 µM | % CD98 down-regulation [4]: 19 ± 1% | Vacuolation score [5]: 3 ± 3

CCCCCCC=Cc1ccc(C2CCNC2CO)cc1 (centres unmarked) [Compound 125]
IC50 [3]: 1.7 µM | % CD98 down-regulation [4]: 58 ± 3% | Vacuolation score [5]: 84 ± 2

CCCCCCC=Cc1ccc(COC2CC(CO)N(C)C2)cc1 (centres unmarked) [Compound 130]
IC50 [3]: 1.9 µM | % CD98 down-regulation [4]: 31 ± 4% | Vacuolation score [5]: 26 ± 2

CCCCCCCCc1ccc(COC2CC(CO)N(C(C)=O)C2)cc1 (centres unmarked) [Compound 131]
IC50 [3]: 29.7 µM | fold less potent than analog 102 ([3]; IC50, FL5.12 cells): 10 fold | % CD98 down-regulation [4]: 37 ± 3% | Vacuolation score [5]: 1 ± 1 | vacuolation (in words) [5]: no vacuolation activity

CCCCCCCCc1ccc(COC2CC(CO)N(C(=N)N)C2)cc1 (centres unmarked) [Compound 132]
IC50 [3]: 14.2 µM | % CD98 down-regulation [4]: 35 ± 1% | Vacuolation score [5]: 0 | ability to induce vacuole formation [5]: lost

CCCCCCCCc1ccc(COC2CC(CO)N(C(=N)N)C2)cc1 (centres unmarked) [Compound 133]
IC50 [3]: 17.3 µM | % CD98 down-regulation [4]: 34 ± 3% | Vacuolation score [5]: 0 | ability to induce vacuole formation [5]: lost

CCCCCCCCc1ccc([C@H]2CCN(C(C)=O)[C@@H]2CO)cc1 [Compound 134]
IC50 [3]: 39.7 µM | % CD98 down-regulation [4]: 40 ± 4% | Vacuolation score [5]: 0 | vacuolation (in words) [5]: failed to induce vacuolation

CCCCCCC=Cc1ccc(C2CCN(C(C)=O)C2CO)cc1 (centres unmarked) [Compound 135]
IC50 [3]: 46.2 µM | % CD98 down-regulation [4]: 40 ± 2% | Vacuolation score [5]: 2 ± 2 | vacuolation (in words) [5]: failed to induce vacuolation

— US10995068B2, “Synthetic sphingolipid-like molecules, drugs, methods of their synthesis and methods of treatment” (The Regents of the University of California, priority 2015, dated 2021)
